Structures are written as SMILES.

One experiment deals with T1, human PAH with the R408W mutation (Homo sapiens, UniProt P00439, R408W).
T1 construct: expressed in transfected cells
T1 sequence (P00439 1-452 R408W): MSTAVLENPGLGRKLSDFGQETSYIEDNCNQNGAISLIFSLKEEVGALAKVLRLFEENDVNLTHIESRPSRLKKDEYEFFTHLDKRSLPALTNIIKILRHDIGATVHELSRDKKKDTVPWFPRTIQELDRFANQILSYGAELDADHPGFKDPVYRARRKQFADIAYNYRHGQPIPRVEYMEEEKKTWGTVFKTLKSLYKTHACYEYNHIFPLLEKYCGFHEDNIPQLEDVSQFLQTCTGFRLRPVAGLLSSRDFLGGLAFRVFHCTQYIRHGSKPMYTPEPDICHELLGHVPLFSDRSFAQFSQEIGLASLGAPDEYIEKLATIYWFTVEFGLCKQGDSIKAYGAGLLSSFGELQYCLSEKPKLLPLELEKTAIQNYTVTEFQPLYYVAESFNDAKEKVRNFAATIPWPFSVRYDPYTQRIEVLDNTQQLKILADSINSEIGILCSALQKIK
Kind of experiment: Cell Based Phenylalanine Flux Assay.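 Also: Ten-point dose curve from 2-fold serial dilutions, run in duplicate at 0.5% DMSO final, tracer step used 20 µM sepiapterin and 800 µM labeled phenylalanine.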 To be noted: A375 cells expressing R408W PAH; 24 hrs with compound, then 20 μM sepiapterin and 800 μM 13C9,15N-Phenylalanine for 4 hours; 13C-Tyrosine in media by LC-MS; average where tested multiple times; read-out: AC50.
By AC50 is commonly meant the concentration at which the activity in the assay is half-maximal. In the case of `O=C(c1cnn(-c2ccccn2)c1Cl)N1CCc2[nH]cnc2[C@@H]1c1cc2ccccn2n1` (single isomer, unassigned), the AC50 is more than 5 µM.

As for `FC(F)c1cccn2nc([C@H]3c4nc[nH]c4CCN3c3nnc(-c4cccnc4)o3)cc12` (single isomer, unassigned), the AC50 was more than 5 µM.

With `Cn1nc(C(F)F)cc1C(=O)N1CCc2[nH]cnc2[C@@H]1c1cc2ccccn2n1` (single isomer, unassigned), the AC50 is more than 5 µM.

Turning to `Cn1cc(-c2nnc(N3CCc4[nH]cnc4[C@H]3c3cc4c(C(F)(F)F)cccn4n3)o2)cn1` (single isomer, unassigned), the AC50 was 1 to 5 µM.

Take `Cc1c(-c2ncc(C(=O)N3CCc4[nH]cnc4[C@H]3c3cc4ccccn4n3)o2)cnn1C` (single isomer, unassigned): the AC50 is 1 to 5 µM.

Take `Cc1n[nH]cc1-c1nnc(C(=O)N2CCc3[nH]cnc3[C@H]2c2cc3c(C)cccn3n2)o1` (single isomer, unassigned): the AC50 fell in the range of 1 to 5 µM.

With `FC1(F)CC(c2nnc(N3CCc4[nH]cnc4[C@H]3c3cc4c(C(F)(F)F)cccn4n3)o2)C1` (single isomer, unassigned), the AC50 lay within 1 to 5 µM.

In the case of `O=C(c1nnc(C2CC(F)(F)C2)o1)N1CCc2[nH]cnc2[C@H]1c1cc2ccccn2n1` (single isomer, unassigned), the AC50 fell in the range of 1 to 5 µM.

On to `CC(C)(F)c1nnc(N2CCc3[nH]cnc3[C@H]2c2cc3c(C4CC4)cccn3n2)o1` (single isomer, unassigned), for which the AC50 is more than 5 µM.

On to `Cc1nnc(N2CCc3[nH]cnc3[C@H]2c2cc3cccc(C(F)F)n3n2)o1` (single isomer, unassigned), for which the AC50 was more than 5 µM.

For `Nc1cnc(N2CCc3[nH]cnc3[C@H]2c2cc3ccccn3n2)nc1` (single isomer, unassigned), the AC50 is more than 5 µM.

In the case of `CC(C)c1cccn2nc([C@@H]3c4nc[nH]c4CCN3c3nnc(-c4ncccn4)o3)cc12` (single isomer, unassigned), the AC50 lay within 1 to 5 µM.

Regarding `Clc1cccn2nc([C@@H]3c4nc[nH]c4CCN3c3nnc(-c4ncccn4)o3)cc12` (single isomer, unassigned), the AC50 was in the range of 1 to 5 µM.

In the case of `COc1cccn2nc([C@@H]3c4nc[nH]c4CCN3c3nnc(-c4ccccn4)o3)cc12` (single isomer, unassigned), the AC50 fell in the range of 1 to 5 µM.

Turning to `O=C(c1nnc(-c2ccc(C(F)(F)F)cn2)o1)N1CCc2[nH]cnc2[C@H]1c1cc2ccccn2n1` (single isomer, unassigned), the AC50 lay in the range of 1 to 5 µM.

On to `O=C(c1cnc(-c2ncccn2)o1)N1CCc2[nH]cnc2[C@H]1c1cc2ccccn2n1` (single isomer, unassigned), for which the AC50 was in the range of 1 to 5 µM.

Take `Cc1cccc2cc([C@@H]3c4nc[nH]c4CCN3c3nnc(C4CCC4)o3)nn12` (single isomer, unassigned): the AC50 lay in the range of 1 to 5 µM.

As for `c1ccn2nc(C3c4nc[nH]c4CCN3c3nnc(C4CCC4)o3)cc2c1` (single isomer, unassigned), the AC50 is 1 to 5 µM.

Take `Cc1cccn2nc([C@@H]3c4nc[nH]c4CCN3c3cccc(F)n3)cc12` (single isomer, unassigned): the AC50 was in the range of 1 to 5 µM.

`FC(F)(F)c1cccn2nc([C@@H]3c4nc[nH]c4CCN3c3nnc(-c4cccnc4)o3)cc12` (single isomer, unassigned): the AC50 is 1 to 5 µM.

For `Fc1cccn2nc([C@@H]3c4nc[nH]c4CCN3c3nnc(-c4cccnn4)o3)cc12` (single isomer, unassigned), the AC50 was in the range of 1 to 5 µM.

Regarding `Fc1cccnc1-c1nnc(N2CCc3[nH]cnc3[C@H]2c2cc3c(C(F)(F)F)cccn3n2)o1` (single isomer, unassigned), the AC50 is 1 to 5 µM.

In the case of `c1cc(C2CC2)c2cc([C@@H]3c4nc[nH]c4CCN3c3nnc(-c4ccncn4)o3)nn2c1` (single isomer, unassigned), the AC50 was 1 to 5 µM.

As to `O=C(C1CC1)N1CCc2[nH]cnc2[C@H]1c1cc2c(F)cccn2n1` (single isomer, unassigned), the AC50 was more than 5 µM.

For the molecule `Cn1cncc1-c1nnc(C(=O)N2CCc3[nH]cnc3C2c2cc3c(C(F)(F)F)cccn3n2)o1` (single isomer, unassigned) [4S enantiomer of 2-(1-methyl-1H-imidazol-5-yl)-5-14-[4-(trif], the AC50 lay in the range of 1 to 5 µM.

On to `FC1(F)CC(c2nnc(N3CCc4[nH]cnc4C3c3cc4ccccn4n3)o2)C1` (single isomer, unassigned) [4S enantiomer of 2-(3,3-difluorocyclobutyl)-5-[4-{pyrazolo{1], for which the AC50 was more than 5 µM.

Turning to `FC(F)(F)c1ccc(N2CCc3[nH]cnc3C2c2cc3cccc(C(F)(F)F)n3n2)nc1` (single isomer, unassigned) [4S enantiomer of 5-(trifluoromethyl)-2-[4-[7-(trifluoromethy], the AC50 fell in the range of 1 to 5 µM.

Staying with this experiment, now noted: A375 cells expressing human R408W PAH; 24 hrs compound incubation; 13C-Tyrosine by LC-MS; average where tested multiple times; read-out: AC50.
In the case of `N#Cc1ncoc1C(=O)N1CCc2[nH]cnc2[C@H]1c1cc2ccccn2n1` (single isomer, unassigned) [Example 640], the AC50 fell in the range of 0.5 to 1 µM.

With `N#Cc1ncoc1C(=O)N1CCc2[nH]cnc2[C@@H]1c1cc2ccccn2n1` (single isomer, unassigned) [Example 641], the AC50 was more than 5 µM.

Consider `Cn1ccc(-c2nnc(C(=O)N3CCc4[nH]cnc4[C@@H]3c3cc4c(C(F)(F)F)cccn4n3)o2)n1` (single isomer, unassigned) [Example 837], for which the AC50 was more than 5 µM.

`Cn1nc(C(F)F)nc1C(=O)N1CCc2[nH]cnc2C1c1cc2c(Cl)cccn2n1` (stereo in doubt) [Example 781, (R)-(4-(4-chloropyrazolo [1,5-a]pyridin-2-yl)-6,7-dihydro-1H-imidazo[4,5-c]pyridin-5(4H)-yl)(3-(difluoromethyl)-1-methyl-1H-1,2,4-triazol-5-yl)methanone]: the AC50 fell in the range of 1 to 5 µM.

With `Cn1cnc(-c2nnc(C(=O)N3CCc4[nH]cnc4C3c3cc4c(C(F)(F)F)cccn4n3)o2)c1` (stereo in doubt) [Example 934, (S)-(5-(1-methyl-1H-imidazol-4-yl)-1,3,4-oxadiazol-2-yl)(4-(4-(trifluoromethyl)pyrazolo[1,5-a]pyridin-2-yl)-6,7-dihydro-1H-imidazo [4,5-c]pyridin-5(4H)-yl)methanone], the AC50 was in the range of 0.5 to 1 µM.

On to `CCOc1cccc2cc(C3c4nc[nH]c4CCN3C(=O)c3oc(C(C)(C)O)nc3C(F)F)nn12` (stereo in doubt) [Example 1245, (S)-(4-(difluoromethyl)-2-(2-hydroxypropan-2-yl)oxazol-5-yl)(4-(7-ethoxypyrazolo [1,5-a]pyridin-2-yl)-6,7-dihydro-1H-imidazo[4,5-c]pyridin-5(4H)-yl)methanone], for which the AC50 lay within 0.5 to 1 µM.

The same experiment, now with this note: A375 cells expressing human R408W PAH; 24 hrs with compound, then sepiapterin and 13C9,15N-Phenylalanine for 4 hours; 13C-Tyrosine by LC-MS; average where tested multiple times; read-out: AC50.
Turning to `Fc1cccc(F)c1-c1nnc(N2CCc3[nH]cnc3[C@H]2c2cc3ccccn3n2)o1` (single isomer, unassigned) [Example 1843], the AC50 is less than 0.5 µM.

Take `O=C(c1cnc(-c2ccccn2)o1)N1CCc2[nH]cnc2C1c1cc2c(C(F)(F)F)cccn2n1` (stereo in doubt) [Example 2036, (S)-(2-(pyridin-2-yl)oxazol-5-yl)(4-(4-(trifluoromethyl)pyrazolo [1,5-a]pyridin-2-yl)-1,4,6,7-tetrahydro-5H-imidazo[4,5-c]pyridin-5-yl)methanone]: the AC50 is less than 0.5 µM.

(Values after US12673961B2 (Agios Pharmaceuticals, Inc., priority 2022, dated 2026).)
